Patent US6716883B1, “Composition useful to treat periodontal disease” (priority 1998, dated 2004)

Legend:
Type in all cases: cell-based
[1] = tested on: chick periosteal osteogenesis (CPO) cultures; assay: Alkaline phosphatase activity (APA) in CPO cultures
Procedure: In this experiment, the chick periosteal osteogenesis (CPO) model was used to determine if bone loss is induced by dioxin. The CPO model has been described in detail previously (Nijweide, Proc. Kon. Ned. Akad. Wet. 1975. C78:410-417) and was prepared for the purposes of this experiment as set out below.
Following sacrifice, two triangular calvarial explants were removed by cutting along the central suture, transversely along the posterior suture and laterally above the eye in 17-day-old embryonic chicks. The ectocranial periosteum (outer curved surface) was peeled off using forceps under microscopic magnification and folded so that the surface originally facing bone was in apposition to itself as described previously (Tenenbaum et al., Calcif Tissue Int. 34:76-79). The folded explant was then placed on a Millipore filter (HA 0.45 μm), which was transferred onto a stainless steel grid resting in the center well of an organ culture dish (Falcon Plastics, Lincoln Park, N.J., USA) that was filled with culture media to a level such that the culture was supported at the gas-liquid interface (˜1.5 ml of media). Three cultures were placed in each dish which was then covered and incubated at 37° C. in a humidified atmosphere containing 5% CO2 in air. Media changes occurred on days 2 and 4, and the medium was comprised of BGJb medium (Fitton-Jackson Modification) with L-glutamine (Gibco, Grand Island, N.Y., USA) and supplemented with 2% antibiotic (10,000 units/ml Penicillin G sodium, 10,000 μg/ml Streptomycin sulfate in 0.85% saline) (Gibco), 10% fetal calf serum (Gibco), 10^−7M dexamethasone (Sigma, St. Louis, Mo., USA), 10 mM β-glycerophosphate, and 300 μg/ml L-ascorbate (Gibco).
(§1) For the purposes of this investigation, the effects of a potent aryl hydrocarbon, TCDD (2,3,7,8-tetrachlorodibenzo-p-dioxin or dioxin) on the early events occurring during osteogenesis were determined. The CPO model traverses a number of phases of osteogenesis. Therefore, it was possible to design temporal or “window” experiments in order to determine the phases of osteogenesis that were sensitive to TCDD and/or resveratrol. […] All cultures were maintained for the entire 6-day period. The compounds were administered over four different temporal phases, as outlined below in the time-line diagram: a) days 0-6; b) days 0-2; c) days 2-4 or d) days 4-6 (Note: all cultures were stopped at 6 days). Results were compared to e) vehicle alone over days 0-6. [drawing 1]
On day 6, the culture dishes were placed on ice and individual cultures were transferred to separate test tubes and stored at −20° C. for further analysis.
CPO cultures were assayed for AP activity using paranitrophenol-phosphate (pN-p) as the substrate (Demetriou et al. J Biol Chem. 1996. 271(22)12755-61). The intensity of the colour change was evaluated using a Titertek® Multiskan® MCC/340 Spectrophotometer (Flow Laboratories, Mississauga, ON, Canada) and compared to a standard curve obtained from a serial dilution of 10 mM pN with bicarbonate buffer (pH 7.4) in flat bottomed Titertek 96-well plates as described previously (Demetriou et al., 1996, supra). The reaction was stopped with 100 μl of 0.2N NaOH and pN-p levels read at 405 nm on the Titertek. Calcium incorporation was assayed in the pellets produced from centrifugation of the homogenized CPO cultures following hydrolysis in 500 μl of 0.5N HCl and then measured using atomic absorption spectrophotometry (Sukhu et al. Endocrinology. 1997. 138 (8):3269-75).

[2] = tested on: rat SBMC (stromal bone marrow cell) line; assay: Mineralization (Alizarin Red staining) in rat SBMC line
Procedure: (§2) Cells for the rat SBMC model were obtained from Dr. Sandu Pitaru (Tel Aviv University, Israel) and maintained in T25 tissue culture flasks (Sarstedt, Newton, N.C., USA) in a medium composed of αMEM+RNA+DNA+antibiotic supplemented with 10% fetal calf serum, 10 mM β-glycerophosphate, 10^−8M dexamethasone, 50 μg/ml vitamin C and 3 ng/ml fibroblast growth factor. The media were changed every 48 hours and the cells subcultured when almost confluent (approximately every 72 hrs). Cells were grown for a period of 1-2 weeks to allow for formation of mineralized bone nodules.
(§3) SBMC cultures were assayed for AP activity using paranitrophenol-phosphate (pN-p) as the substrate as described above for CPO cultures. In some cases, AP activity was also measured using direct staining of SBMC cultures in 96 well plates as described previously (Tenenbaum et al., Anat Rec. 1995. 242(2):200-10). Mineralization in the SBMC cultures was determined using Alizarin Red staining in situ that was assessed with the Titertek spectrophotometer set at 525 nm.

[3] = tested on: chick periosteal osteogenesis (CPO) cultures; assay: RT-PCR mRNA levels of bone proteins (AP, BSP, collagen type I, OPN) in CPO cultures
Procedure: as §1
The isolation of total RNA from periosteal cultures to determine affect of TCDD on message levels of bone proteins was accomplished using the QIAGEN Rneasy® kit and QIAShredder® (Hilden, Germany) according to the manufacturer's instructions. Total RNA (2 μg) was reverse transcribed using SuperScript II™ RNase H^− Reverse Transcriptase (Gibco BRL, City Country). PCR reactions were performed in […] reactions at a cycle number ensuring a linear amplification profile (BSP, 5 min at 94° C., 30 cycles [of 20 sec at 94° C., 20 sec at 55° C., 20 sec at 72° C.]; Collagen 5 min at 94° C., 30 cycles [of 20 sec 94° C. 20 sec 58° C., 20 sec 72° C.]; AP 5 min at 94° C., 30 cycles [of 20 sec 94° C., 20 sec 59° C., 20 sec 72° C.]; OPN 5 min at 85° C., 5 min at 94° C., 25 cycles [20 sec at 94° C., 20 sec at 60° C., 20 sec at 72° C.] 7 min at 72° C.). The oligonucleotides for BSP (sense: 5′-[…]-3′; antisense: 5′-[…]-3′) AP (sense: 5′-[…]-3′; antisense: 5′-[…]-3′), Collagen (sense: 5′-[…]-3′; antisense: 5′-[…]-3′); OPN (sense 5′-[…]-3′; antisense 5′-[…]-3′) were synthesized by Life Technologies (Gibco BRL, Rockville, Md.). PCR products were electrophoresed on 1.5 (wt/vol) % agarose gels with 0.1 μg/ml ethidium bromide. The gels were visualized on an UV transilluminator and photographed using 667 Polaroid film. The inverse images of the photographs were analyzed by densitometry. All values were normalized for the internal control, β-actin.

[4] = tested on: rat SBMC (stromal bone marrow cell) line; assay: AP activity in rat stromal bone marrow cell (SBMC) line
Procedure: as §2, §3

## Clc1cc2c(cc1Cl)Oc1cc(Cl)c(Cl)cc1O2 [TCDD, 2,3,7,8-tetrachlorodibenzo-p-dioxin]
[1]; 10^−9M TCDD alone during days 0-2, p<0.05 vs. vehicle
  reduction in AP activity: 53%
[1]; 10^−9M TCDD alone during days 2-4 or 4-6
  change in AP activity: did not significantly alter AP activity
[1]; 10^−9M TCDD over a 6-day period
  reduction in AP activity versus vehicle alone: 80%
[2]; TCDD 4.12×10^−11M to 1.52×10^−12M
  reduction in mineralization (Alizarin Red Staining), dose dependence: dose dependant reduction in mineralization
[2]; in the presence of TCDD
  decrease in mineralization: approximately 75%
[3]; TCDD, p<0.05
  reduction in mRNA for BSP: ~4 fold
  reduction of mRNA levels for OPN: about 40%
  reduction of mRNA levels for type I collagen in comparison to control: 50%
  reduction of message levels for AP in comparison to control: about 50%
[4]; TCDD 1.1×10^−9M
  reduction in AP activity: 33%
[4]; TCDD 3.3×10^−9M and higher
  reduction in AP activity versus control: 33%
[4]; TCDD 3.3×10^−9M to 4.12×10^−11M
  dose dependence of reduction in AP activity: dose dependant
[4]; TCDD 4.12×10^−11M
  AP activity: not affected

## Oc1ccc(C=Cc2cc(O)cc(O)c2)cc1 [resveratrol, 3,5,4′-trihydroxystilbene]
[1]; 10^−6M resveratrol alone over days 0-6, 0-2, 2-4 or 4-6
  change in AP activity: No significant change in AP activity
[1]; resveratrol 10^−5M, 10^−6M and 10^−7M with TCDD, FIG. 2a
  increase in AP activity in comparison to TCDD alone: 2-4 fold
[2]; resveratrol with TCDD
  effect on TCDD-induced decrease in mineralization: attenuated
[3]; TCDD with resveratrol
  reversal of TCDD inhibition of BSP mRNA: reversed completely
[3]; both TCDD and resveratrol
  mRNA levels for OPN: restored
[3]; both TCDD and resveratrol, versus control
  mRNA levels for Type I collagen: identical levels
[3]; resveratrol alone
  message for BSP: partially down-regulate
  message for collagen: partially down-regulate
[4]; increasing concentration of resveratrol, TCDD 4.12×10^−11M
  effect on AP activity: had no effect
[4]; resveratrol 4×10^−8M to 1×10^−5M, TCDD 1.1×10^−9M
  abrogation of TCDD effect on AP activity: abrogated the effects of TCDD
[4]; resveratrol at various concentrations, TCDD 3.3×10^−9M and higher
  reversal of TCDD reduction in AP activity: not reversed
